The values that follow come from patent US12427151B2, “Compositions and method of treating cancer” (The Regents of the University of California, priority 2017, dated 2025).

The subject of one series is S. epidermidis ATCC12228. As to the kind of experiment: MBC determination. It is filed as cell-based. The conditions noted are these: Staphylococcus epidermidis, 3-log reduction, 24 hour, 37° C., half strength MHB in PBS. The method, then:
(§1) To determine MBC, bacteria were cultured in TSB (Staphylococcus), THB (Streptococcus) or Nutrient broth (P. aeruginosa and E. coli) by reaching exponential phase (OD600=0.5-0.8). […] After incubation, the number of viable bacteria was measured by counting CFU after spreading 10-fold serial dilutions of bacteria on suitable agar plates. MBC was determined as a 3-log reduction (99.9%) of viable bacteria after 24 hour incubation.
(§2) Antimicrobial activity of 6-HAP in vitro. To examine the specificity of 6-HAP for various bacteria, minimal bactericidal concentrations (MBCs) were determined according to dose-dependent killing curves at 24 hrs of incubation in vitro (Table 1). 6-HAP killed or suppressed growth of several major skin pathogens including GAS (NZ131), group B Streptococcus (GBS) (DK23), methicillin-sensitive S. aureus (ATCC35556), methicillin-resistant S. aureus (MRSA) strains (USA300 and Sanger252), Pseudomonas aeruginosa (P. aeruginosa) (ATCC14213) in vitro. […] S. epidermidis (ATCC12228) was also resistant to 6-HAP.

Series [1] relates to Klenow fragment (exo) DNA polymerase. As to the kind of experiment: In vitro DNA polymerization assay. It is filed as biochemical. The conditions noted are these: cell free system, in the presence of 6-HAP. The method, then:
(a) Time course killing of GAS in THB containing 6-HAP (25 μg/mL), mitomycin C (5 μg/mL), or LL-37 (10 μM). At each indicated time point, live GAS in the media was measured by counting CFU on an agar plate. The data represent mean±SE of four individual experiments. (b) Membrane permeability of GAS incubated in THB containing 6-HAP (25 μg/mL), mitomycin C (5 μg/mL) and LL-37 (10 μM) for 1 hr. The bacteria with compromised plasma membranes (Red) can be distinguished from those with intact membranes (Green). (c) BrdU incorporation into nascent DNA of GAS after incubation with 6-HAP (25 μg/mL) or mitomycin C (5 μg/mL) in THB containing BrdU (10 μM) for 30 or 60 min. (d) BrdU incorporation into nascent DNA of S. epidermidis ATCC12228 after incubation with 6-HAP (25 μg/mL) or mitomycin C (5 μg/mL) in THB containing BrdU (10 μM) for 60 min. […] Extension reaction was analyzed on a 20% acrylamide gel by electrophoresis (f). […] GAS survival was measured by counting CFU. […]
In vitro DNA polymerization assay. […] Fluorescence was visualized with Oddyssey Imaging System (LI-COR Biosciences, Lincoln, NE).
We next assessed the effect of 6-HAP on DNA synthesis. […] To directly examine the action of 6-HAP on DNA extension in a cell free system, 25-bp templates and matching 18-bp fluorescence primers were designed to measure DNA extension in vitro by Klenow (exo) DNA polymerase (FIG. 4e).

The next series concerns GAS (NZ131). Briefly: Radial diffusion assay against GAS. It is filed as cell-based, group A streptococcus. The conditions noted are these: fraction purified from MO34 conditioned media. An excerpt:
(a) Screening for antimicrobial activity of culture supernatant from 44 strains of S. epidermidis strains isolated from normal human skin by radial diffusion assay against group A streptococcus (GAS). Data represent diameter of growth inhibition zone of conditioned media of each strain. UD=undetectable. (b) Elution profile of the antimicrobial compound purified from culture supernatant of S. epidermidis MO34 by HPLC using a PolyHYDROXYMETHYL. The last step of 5 purification steps is shown. The insert panel represents antimicrobial activity of each fraction on radial diffusion assay against GAS. Green line represents a gradient of H2O in acetonitrile. […] Antimicrobial activity against GAS was determined by radial diffusion assay. […]
S. epidermidis strains from human skin produce non-proteinaceous antibiotic. To screen for commensal skin bacteria producing antimicrobial activity, 44 strains of S. epidermidis from clinical isolates of normal human skin were cultured overnight and the antimicrobial activity produced by each isolate was determined by radial diffusion assay of their conditioned media against GAS (FIG. 1a). […]

The test system of another series is GAS. As to the kind of experiment: Stability of antimicrobial activity after heat or protease treatment (radial diffusion assay). It is filed as physicochemical, group A streptococcus. The conditions noted are these: activity against GAS. An excerpt:
(a) Screening for antimicrobial activity of culture supernatant from 44 strains of S. epidermidis strains isolated from normal human skin by radial diffusion assay against group A streptococcus (GAS). Data represent diameter of growth inhibition zone of conditioned media of each strain. UD=undetectable. (b) Elution profile of the antimicrobial compound purified from culture supernatant of S. epidermidis MO34 by HPLC using a PolyHYDROXYMETHYL. The last step of 5 purification steps is shown. The insert panel represents antimicrobial activity of each fraction on radial diffusion assay against GAS. Green line represents a gradient of H2O in acetonitrile. (c-d) Stability of antimicrobial molecules from S. epidermidis producing the strongest antibiotic activity (MO34) against GAS after heat-treatment (100° C. for indicated time) (c) and incubation with proteinase K (2 mg/mL) or papain (2 mg/mL) at 37° C. for 3 hrs, followed by 5-min incubation at 90° C. to inactivate enzyme (d). Antimicrobial activity against GAS was determined by radial diffusion assay.
To characterize the molecule(s) responsible for antimicrobial activity secreted from the MO34 strain, the antimicrobial molecule was purified from the conditioned media based on activity against GAS. A single peak was isolated in the last chromatography of 5 purification steps (FIG. 1b). […]

In another series the test system is GBS DK23. As to the kind of experiment: MBC determination. It is filed as cell-based, group B Streptococcus. The following applies: Streptococcus, 3-log reduction, 24 hour, 37° C., half strength MHB in PBS. The procedure: as §1, §2

≈ marks a conversion by molar mass, not a printed value.

Broadly, the MBC is the lowest tested concentration that kills the bacteria rather than only halting them. A lower MBC goes with greater bactericidal potency.

In the series with S. epidermidis ATCC12228, `ONc1ncnc2nc[nH]c12` [6-HAP, 6-N-hydroxyaminopurine] yielded an MBC of more than 50 µg/mL. Moreover, in series [1], the “DNA extension, template requiring adenosine (X=T)” value was “lack of extension” and the “DNA extension, template requiring cytosine (X=G)” value is “synthesis of the expected extended DNA product”. Moreover, the “zones of inhibition of GAS growth by purified fraction” value in the series on GAS (NZ131) is “strong zones of inhibition”. For the same compound, the “heat stability of antimicrobial activity” value with GAS (100° C. for indicated time) was “heat-stable”. The “protease sensitivity of antimicrobial activity” value with GAS (proteinase K (2 mg/mL) or papain (2 mg/mL) at 37° C. for 3 hrs) was “protease-insensitive”. For the same compound, the MBC with GBS DK23 stood at 0.781 µg/mL (≈ 5.17 µM).
